These results are taken from patent US6613352B2, “Low-rigidity liposomal formulation” (Universite de Montreal, priority 1999, dated 2003).

This assay concerns Xanthomonas maltophilia. The assay is described as follows: In vitro bactericidal activity, viable bacterial counts in proteose peptone. The class given is cell-based. The settings on record: free tobramycin 3,12 μg/ml, entrapped tobramycin 3,08 μg/ml, MIC >5 μg/ml. The method, then:
To culture tubes containing proteose peptone (29 ml) a minimal number of 10^8 CFU of bacteria in logarithmic phase (1 ml) and of one of the following preparations (100 μl) were added at time zero: free tobramycin, control liposomes or PBS. Experiments were done in triplicate. At times 1, 3, 6, and 16 hours following the addition of antibiotic or controls, 2 ml of samples were collected and serial 10-fold dilutions were made and spread in triplicate on proteose peptone agar plates for gram negative strains and on […] for S. aureus. CFU were counted after 24-hour and 48-hourS incubations at 37° C. under 5% CO2. Counts were expressed in log CFU per ml of culture media.

Each structure is given as a SMILES string.

As for `NC[C@H]1O[C@H](O[C@H]2[C@H](O)[C@@H](O[C@H]3O[C@H](CO)[C@@H](O)[C@H](N)[C@H]3O)[C@H](N)C[C@@H]2N)[C@H](N)C[C@@H]1O` [Free tobramycin, tobramycin], the Viable bacterial counts (0 h) is reported as 3.7 × 10^10 cfu, the Viable bacterial counts (1 h) is 3.00 × 10^12 cfu, the Viable bacterial counts (3 h) is 8.20 × 10^14 cfu and the Viable bacterial counts (6 h) is 7.80 × 10^16 cfu.
